Read-outs that look alike come from different tables or passages of the source.
Tests used:
[1] = test system: mice; assay: Supramaximal electrical shock test (corneal electrodes); assay type: in vivo; conditions: Mus musculus, po, P.O., dose which protects 50% of the animals from tonic tension, read-out: ED 50 ELECTROSHOCK
[2] = test system: depletion of serotonin (5HT) induced by H75/12; assay: Test using H75/12: inhibition of serotonin depletion; assay type: in vivo; conditions: Mus musculus, ip, 30 min before H75/12, mice, read-out: Percentage of inhibition of depletion on 5 HT; for inhibition at 40 mg/kg: 40 mg/kg I.P.; for inhibition at 10 mg/kg: 10 mg/kg I.P.; for inhibition at 30 mg/kg: 30 mg/kg I.P.; for inhibition at 20 mg/kg: 20 mg/kg I.P.
Description: In the experiments carried out, the H 75/12 was administered on two occasions with an interval of two hours between them, in a proportion of 100mg/kg by intraperitoneal method.
In Table I hereafter, the first figure represents the first dose in mg/kg by intraperitoneal method, of the product according to the invention, administered thirty minutes before the injection of H75/12, and the second figure represents the percentage of inhibition of the depletion of serotonin in relation to a reference batch which has received only H75/12. The compounds signified by Compound Nos. 1-14 in Table 1 are indicated hereafter in Table II.

[3] = test system: hypotension (H), tachycardia (T), and positive inotropism (I^+) induced by isoprenaline; assay: Cardiovascular parameters: modification of isoprenaline-induced hypotension, tachycardia and positive inotropism; assay type: in vivo, chloralised dogs; conditions: Canis lupus familiaris
Description: Experiments were carried out on chloralised dogs: these consisted of measuring, as a percentage relative to the […] of reference animals, the modifications caused by the products of the invention, administered in a proportion of 5mg/kg by intravenous route, on hypotension (H), tachycardia (T), and positive inotropism (I^+) induced by isoprenaline previously administered in a proportion of 0.5μg/kg by intravenous route.

[4] = LD50 oral, acute toxicity; conditions: mouse, in vivo; oral administration; mice
[5] = 5 mg/kg intravenous, isoprenaline 0.5 μg/kg intravenous, chloralised dogs, read-out: Cardiovascular parameters, H (hypotension)
[6] = 5 mg/kg intravenous, isoprenaline 0.5 μg/kg intravenous, chloralised dogs, read-out: Cardiovascular parameters, I^+ (positive inotropism)
[7] = 5 mg/kg intravenous, isoprenaline 0.5 μg/kg intravenous, chloralised dogs, read-out: Cardiovascular parameters, T (tachycardia)

For `CC(C)NC1CCCC(Oc2cccc(Cl)c2)C1O` (stereo not shown) [Compound No. 1, 2-hydroxy-3-(3'-chloro-phenoxy)-N-isopropyl-cyclohexylamine], the ED50 [1] was 100 mg/kg, the inhibition at 40 mg/kg [2] was 99% and the change in vivo at 5 mg/kg [3, 5] was 0%. The change in vivo at 5 mg/kg [3, 6] was 0%, the change in vivo at 5 mg/kg [3, 7] was 0% and the LD50 [4] was 588 mg/kg.

With `CC(C)NCC(O)COc1cccc2ccccc12` (stereo not shown) [PROPRANOLOL, propranolol, reference compound] the change in vivo at 5 mg/kg ([3]; iv, read-out: Cardiovascular parameters, H (hypotension)) was -100%, the change in vivo at 5 mg/kg ([3]; iv, read-out: Cardiovascular parameters, I^+ (positive inotropism)) was -98% and the change in vivo at 5 mg/kg ([3]; iv, read-out: Cardiovascular parameters, T (tachycardia)) was -92%.

`CC(C)NC1CCCC(Oc2ccc(Cl)cc2)C1O` (stereo not shown) [compound 2] showed an ED50 [1] of 300 mg/kg, an inhibition at 40 mg/kg [2] of 42% and a change in vivo at 5 mg/kg [3, 5] of 30%. For the same compound, the change in vivo at 5 mg/kg [3, 6] was -15% and the change in vivo at 5 mg/kg [3, 7] was -20%.

Work on `CC(C)CNC1CCCC(Oc2ccc(Cl)cc2)C1O` (stereo not shown) [compound 3] yielded an ED50 [1] of 100 mg/kg, an inhibition at 10 mg/kg [2] of 30% and a change in vivo at 5 mg/kg [3, 5] of 0%. For the same compound, the change in vivo at 5 mg/kg [3, 6] was 0% and the change in vivo at 5 mg/kg [3, 7] was 0%.

With `CC(C)CCNC1CCCC(Oc2ccc(Cl)cc2)C1O` (stereo not shown) [compound 4] the ED50 [1] was 25 mg/kg, the inhibition at 10 mg/kg [2] was 59% and the change in vivo at 5 mg/kg [3, 5] was 0%. For the same compound, the change in vivo at 5 mg/kg [3, 6] was 0% and the change in vivo at 5 mg/kg [3, 7] was 0%.

Work on `CC(C)NC1CCCC(Oc2ccccc2)C1O` (stereo not shown) [compound 5] yielded an inhibition at 40 mg/kg [2] of 26%, a change in vivo at 5 mg/kg [3, 5] of 0% and a change in vivo at 5 mg/kg [3, 6] of 25%. The change in vivo at 5 mg/kg [3, 7] was -39%.

With `CC(C)NC1CCCC(Oc2cccc(C(F)(F)F)c2)C1O` (stereo not shown) [compound 6] the ED50 [1] was < 100 mg/kg, the inhibition at 40 mg/kg [2] was 74% and the change in vivo at 5 mg/kg [3, 5] was -18%. It also gave a change in vivo at 5 mg/kg [3, 6] of 0% and a change in vivo at 5 mg/kg [3, 7] of -20%.

For `CC(C)CCNC1CCCC(Oc2cccc(C(F)(F)F)c2)C1O` (stereo not shown) [compound 7], the ED50 [1] was 30 mg/kg, the inhibition at 30 mg/kg [2] was 93% and the change in vivo at 5 mg/kg [3, 5] was -50%. The change in vivo at 5 mg/kg [3, 6] was -38% and the change in vivo at 5 mg/kg [3, 7] was -50%.

Work on `CC(C)NC1CCCC(Oc2ccc(F)cc2)C1O` (stereo not shown) [compound 8] yielded an ED50 [1] of 200 mg/kg, an inhibition at 40 mg/kg [2] of 59% and a change in vivo at 5 mg/kg [3, 5] of 0%. It also gave a change in vivo at 5 mg/kg [3, 6] of -27% and a change in vivo at 5 mg/kg [3, 7] of -10%.

Work on `CN(C)C1CCCC(Oc2ccc(F)cc2)C1O` (stereo not shown) [compound 9] yielded an ED50 [1] of 250 mg/kg, an inhibition at 20 mg/kg [2] of 18% and a change in vivo at 5 mg/kg [3, 5] of 30%. It also gave a change in vivo at 5 mg/kg [3, 6] of 25% and a change in vivo at 5 mg/kg [3, 7] of 9%.

With `CCCCNC1CCCC(Oc2cccc(Cl)c2)C1O` (stereo not shown) [compound 10] the ED50 [1] was 80 mg/kg, the inhibition at 30 mg/kg [2] was 92% and the change in vivo at 5 mg/kg [3, 5] was 0%. For the same compound, the change in vivo at 5 mg/kg [3, 6] was 0% and the change in vivo at 5 mg/kg [3, 7] was 0%.

With `CC(Cc1ccccc1)NC1CCCC(Oc2ccccc2)C1O` (stereo not shown) [compound 11] the inhibition at 40 mg/kg [2] was 118%, the change in vivo at 5 mg/kg [3, 5] was 0% and the change in vivo at 5 mg/kg [3, 6] was -10%. For the same compound, the change in vivo at 5 mg/kg [3, 7] was -60%.

For `CC(Cc1ccccc1)NC1CCCC(Oc2ccc(F)cc2)C1O` (stereo not shown) [compound 12], the ED50 [1] was < 50 mg/kg, the inhibition at 20 mg/kg [2] was 120% and the change in vivo at 5 mg/kg [3, 5] was 35%. The change in vivo at 5 mg/kg [3, 6] was 0% and the change in vivo at 5 mg/kg [3, 7] was -35%.

Compound `NC1CCCC(Oc2ccc(Cl)cc2)C1O` (stereo not shown) [compound 13] has an inhibition at 40 mg/kg [2] of 62%, a change in vivo at 5 mg/kg [3, 5] of 0% and a change in vivo at 5 mg/kg [3, 6] of 0%. The change in vivo at 5 mg/kg [3, 7] was 0%.

Work on `CN(C)C1CCCC(Oc2ccc(Cl)cc2)C1O` (stereo not shown) [compound 14] yielded an inhibition at 40 mg/kg [2] of 38%, a change in vivo at 5 mg/kg [3, 5] of 0% and a change in vivo at 5 mg/kg [3, 6] of 0%. For the same compound, the change in vivo at 5 mg/kg [3, 7] was 0%.
